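A five-concentration, 48-hour dose response in 96-well plates underlies each endpoint, interpolated linearly between surrounding concentrations. GI50 marks 50% less growth. TGI: total growth inhibition.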
How the values were obtained:
Test in all cases: growth of human tumour cells (NCI), 48 h
[1] = test system: HCT-116 colon
[2] = test system: SNB-19 CNS
[3] = test system: K-562 leukemia
[4] = test system: COLO 205 colon
[5] = test system: NCI-H460 lung
[6] = test system: LOX IMVI melanoma
[7] = test system: OVCAR-8 ovarian
[8] = test system: UACC-62 melanoma
[9] = test system: HS 578T breast
[10] = test system: HCT-15 colon
[11] = test system: U251 CNS
[12] = test system: IGROV1 ovarian
[13] = test system: BT-549 breast
[14] = test system: SF-295 CNS
[15] = test system: NCI-H522 lung
[16] = test system: OVCAR-5 ovarian
[17] = test system: TK-10 renal
[18] = test system: A498 renal
[19] = test system: RPMI-8226 leukemia
[20] = test system: MALME-3M melanoma
[21] = test system: KM12 colon
[22] = test system: HCC-2998 colon
[23] = test system: SF-268 CNS
[24] = test system: OVCAR-4 ovarian
[25] = test system: SNB-75 CNS
[26] = test system: M14 melanoma
[27] = test system: PC-3 prostate
[28] = test system: MDA-MB-435
[29] = test system: T-47D breast
[30] = test system: MCF7 breast
[31] = test system: HOP-92 NSCLC
[32] = test system: SF-539 CNS
[33] = test system: MDA-MB-231 breast
[34] = test system: SK-MEL-5 melanoma
[35] = test system: SK-OV-3 ovarian
[36] = test system: HT29 colon
[37] = test system: SK-MEL-2 melanoma
[38] = test system: SN12C renal
[39] = test system: A549 NSCLC
[40] = test system: 786-0 renal
[41] = test system: SK-MEL-28 melanoma
[42] = test system: UACC-257 melanoma
[43] = test system: HOP-62 NSCLC
[44] = test system: EKVX NSCLC
[45] = test system: DU-145 prostate
[46] = test system: NCI-H226 lung
[47] = test system: SW-620 colon
[48] = test system: NCI/ADR-RES ovarian

C#Cc1nc(/C=C/CCCCCCC(=O)NO)cs1
GI50 [1]: 2700 nM | TGI [1]: 10.5 µM | GI50 [2]: 16 µM | TGI [2]: > 100 µM | GI50 [3]: 2950 nM | TGI [3]: > 100 µM | GI50 [4]: 4.73 µM | TGI [4]: 18 µM | GI50 [5]: 4.16 µM | TGI [5]: > 100 µM | GI50 [6]: 185 nM | TGI [6]: 352 nM | GI50 [7]: 3.45 µM | TGI [7]: > 100 µM | GI50 [8]: 3.1 µM | TGI [8]: 15 µM | GI50 [9]: 3.59 µM | TGI [9]: 76.3 µM | GI50 [10]: 7.53 µM | TGI [10]: > 100 µM | GI50 [11]: 3.47 µM | TGI [11]: 18.6 µM | GI50 [12]: 1630 nM | TGI [12]: 3.38 µM | GI50 [13]: 4.05 µM | TGI [13]: 49.5 µM | GI50 [14]: 5.52 µM | TGI [14]: 19.3 µM | GI50 [15]: 3.05 µM | TGI [15]: 17.9 µM | GI50 [16]: 3.07 µM | TGI [16]: > 100 µM | GI50 [17]: 2290 nM | TGI [17]: 16.3 µM | GI50 [18]: 3.7 µM | TGI [18]: 16.8 µM | GI50 [19]: 1410 nM | TGI [19]: 5.21 µM | GI50 [20]: 1530 nM | TGI [20]: 3.12 µM | GI50 [21]: 5.32 µM | TGI [21]: 42.6 µM | GI50 [22]: 11.6 µM | TGI [22]: 36.9 µM | GI50 [23]: 3.89 µM | TGI [23]: 14.9 µM | GI50 [24]: 2310 nM | TGI [24]: 6.34 µM | GI50 [25]: 1740 nM | TGI [25]: 9.61 µM | GI50 [26]: 5.18 µM | TGI [26]: 61.4 µM | GI50 [27]: 5.27 µM | TGI [27]: > 100 µM | GI50 [28]: 5.67 µM | TGI [28]: > 100 µM | GI50 [29]: 3.08 µM | TGI [29]: 33.8 µM | GI50 [30]: 5.03 µM | TGI [30]: > 100 µM | GI50 [31]: 1180 nM | TGI [31]: 2760 nM | GI50 [32]: 1590 nM | TGI [32]: 3.05 µM | GI50 [33]: 2250 nM | TGI [33]: 5.13 µM | GI50 [34]: 4.81 µM | TGI [34]: 17.4 µM | GI50 [35]: 5.12 µM | TGI [35]: 28.3 µM | GI50 [36]: 4.26 µM | TGI [36]: 31.4 µM | GI50 [37]: 20.6 µM | TGI [37]: 85.5 µM | GI50 [38]: 7.84 µM | TGI [38]: > 100 µM | GI50 [39]: 6.23 µM | TGI [39]: > 100 µM | GI50 [40]: 6.72 µM | TGI [40]: 47.7 µM | GI50 [41]: 9.61 µM | TGI [41]: 94.7 µM | GI50 [42]: 3.39 µM | TGI [42]: > 100 µM | GI50 [43]: 5.47 µM | TGI [43]: 58.7 µM | GI50 [44]: 22.7 µM | TGI [44]: > 100 µM | GI50 [45]: 3.01 µM | TGI [45]: > 100 µM | GI50 [46]: 13.3 µM | TGI [46]: 53.6 µM | GI50 [47]: 2140 nM | TGI [47]: 4.9 µM | GI50 [48]: 2150 nM | TGI [48]: 13.6 µM

— PubChem BioAssay (NCI)
